From paper PMC8748444, “Hypocrates is a genetically encoded fluorescent biosensor for (pseudo)hypohalous acids and their derivatives” (Nature Communications, 2022)

Tests used:
[1] = biological target: Hypocrates (NemR-cpYFP biosensor) (E. coli); assay: SEC; Superdex 200 Increase 10/300 GL, 100 mM sodium phosphate buffer pH 7.4, 24 °C, 0.75 ml/min; samples incubated with 5 mM DTT or with N-chlorotaurine at 1:20 protein/oxidant ratio for 5 min before injection; absorbance at 415 nm; column calibrated with mass standards
[2] = biological target: T1, Hypocrates (NemR-cpYFP biosensor) (Escherichia coli, UniProt P67430, C21S/C98S/C116S/C149S/C153S, form not given); assay: fluorescence titration, Ex500/Ex417 ratio; format: binding; settings: covalent (oxidation); 100 mM sodium phosphate pH 7.4, 25 °C; 0.5 µM protein
T1 construct: cpYFP (from HyPer-2) inserted with SAG/GT linkers into flexible loop of NemR^C106; pQE30; with Green fluorescent protein (circularly permuted yellow variant, cpYFP)
T1 sequence (P67430 whole entry C21S/C98S/C116S/C149S/C153S, form open): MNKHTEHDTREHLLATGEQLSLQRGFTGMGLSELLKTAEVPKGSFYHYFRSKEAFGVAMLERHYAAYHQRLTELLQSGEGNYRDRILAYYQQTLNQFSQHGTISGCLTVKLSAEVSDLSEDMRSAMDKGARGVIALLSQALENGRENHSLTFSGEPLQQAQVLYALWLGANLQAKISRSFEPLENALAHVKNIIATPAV

NemR^C106 [3] = biological target: T2, NemR^C106 (Escherichia coli, UniProt P67430, C21S/C98S/C116S/C149S/C153S); assay: intrinsic Trp fluorescence shift; format: binding; settings: covalent (oxidation); 2 µM protein, 50 µM oxidant; 100 mM sodium phosphate pH 7.4
T2 construct: pET-21b(+) in E. coli BL21 (DE3); Ni-Sepharose purified; DTT-reduced before assay; NemR homo-dimer
T2 sequence (P67430 whole entry C21S/C98S/C116S/C149S/C153S): as the sequence (P67430 whole entry C21S/C98S/C116S/C149S/C153S, form open) above

[4] = biological target: T3, Hypocrates (NemR-cpYFP biosensor) (Escherichia coli, UniProt P67430, C21S/C98S/C116S/C149S/C153S/K175A, form not given); assay: fluorescence excitation spectra in E. coli cells expressing the sensor; format: cell-based; settings: HypocratesKA; 80 µM oxidant; PBS pH 7.4
T3 construct: cpYFP (from HyPer-2) inserted with SAG/GT linkers into flexible loop of NemR^C106; pQE30; with Green fluorescent protein (circularly permuted yellow variant, cpYFP)
T3 sequence (P67430 whole entry C21S/C98S/C116S/C149S/C153S/K175A, form open): as the sequence (P67430 whole entry C21S/C98S/C116S/C149S/C153S, form open) above, with K175A counted along it

[5] = biological target: T1, Hypocrates (NemR-cpYFP biosensor); assay: stopped-flow, cpYFP fluorescence (λex […] nm); format: binding; settings: covalent (oxidation, chlorination); 100 mM sodium phosphate pH 7.4, 25 °C; 0.5 µM protein
NemR^C106 [6] = biological target: T2, NemR^C106; assay: stopped-flow, intrinsic Trp fluorescence; format: binding; settings: covalent (oxidation); 100 mM sodium phosphate pH 7.4, 25 °C; 1 µM protein
[7] = biological target: T4, Hypocrates (NemR-cpYFP biosensor) (Escherichia coli, UniProt P67430, C21S/C98S/C106S/C116S/C149S/C153S, form not given); assay: fluorescence excitation spectra in E. coli cells expressing the sensor; format: cell-based; settings: HypocratesCS, key Cys replaced; 80 µM oxidant; PBS pH 7.4
T4 construct: cpYFP (from HyPer-2) inserted with SAG/GT linkers into flexible loop of NemR^C106; pQE30; with Green fluorescent protein (circularly permuted yellow variant, cpYFP)
T4 sequence (P67430 whole entry C21S/C98S/C106S/C116S/C149S/C153S, form open): as the sequence (P67430 whole entry C21S/C98S/C116S/C149S/C153S, form open) above, with C106S counted along it

## Hypocrates (NemR-cpYFP biosensor)
[1]
  stoichiometry N: 2

## N#CSO [HOSCN]
[2]
  sensitivity (slope of initial linear part): ~ 1.11 µM^−1

## OBr [NaOBr]
NemR^C106 [3]
  intrinsic Trp fluorescence shift: The oxidants NaOCl, NCT, and NaOBr caused Trp-fluorescence shifts

## OCl [NaOCl]
[4]
  fluorescence excitation spectra in E. coli cells expressing the sensor: we found that HypocratesKA is still highly sensitive to NaOCl (Fig. 1i)
[5]
  second-order rate constant (kon): (1.4 ± 0.056) × 10^6 M^−1s^−1
NemR^C106 [6]
  second-order rate constant: ~ 3.0 × 10^5 M^−1s^−1
[7]
  no response: E. coli cells expressing HypocratesCS did not respond anymore to the addition of NaOCl
